Key:
Type in all cases: cell-based
Calu-3 (lung cancer) = assay: In vitro cytotoxicity of camptothecin analogues (CellTiter-Glo); details: Homo sapiens, Calu-3, 96 h; 4 d incubation, growth inhibition by CellTiter-Glo; read-out: pIC50 Calu-3 (converted)
Description: Cytotoxicity of the camptothecin analogues was assessed in vitro on the following cancer cell lines: SK-BR-3 (breast cancer), SKOV-3 (ovarian cancer), Calu-3 (lung cancer), ZR-75-1 (breast cancer) and MDA-MB-468 (breast cancer).
Briefly, serial dilutions of camptothecin analogues shown in Table 5.1 were prepared in RPMI 1640+10% FBS, and 20 uL of each dilution was added to 384-well plates. Cells cultured in log-phase growth were detached by brief incubation in 0.05% Trypsin and resuspended in respective culturing media at 20,000 cells/mL (with the exception of ZR-75 cells, which were resuspended at 10,000 cells/mL). 50 uL of cell suspension was then added to the plates containing test articles. Cells were incubated with test articles for 4 d at 37° C. (with the exception of ZR-75 cells, which were incubated for 5 d). Growth inhibition was assessed by CellTiter-Glo® (Promega Corporation, Madison, WI) and luminescence was measured on a Synergy™ H1 plate reader (BioTek Instruments, Winooski, VT). IC50 values were determined by GraphPad Prism (GraphPad Software, San Diego, CA).

[1] = system: EBC-1 (lung carcinoma; FRα-negative) spheroids; assay: In vitro cytotoxicity of anti-FRα ADCs, 3D spheroids; details: monoculture spheroids, 6-day treatment
Description: (§1) The cytotoxicity capabilities of select ADCs from Example 12 were assessed in a panel of FRα-expressing cell line spheroids as described below. Cell lines used were IGROV-1 (ovarian adenocarcinoma), T-47D (breast carcinoma), OVCAR-3 (ovarian adenocarcinoma), HEC-1-A (uterine adenocarcinoma) and EBC-1 (lung carcinoma; FRα-negative).
(§2) Briefly, cells were seeded in Ultra-Low Attachment 384-well plates, centrifuged and incubated under standard culturing conditions to allow for spheroid formation and growth. Monoculture cell line spheroids were then treated with a titration of test article, generated in cell growth medium. Spheroids were incubated for 6 days under standard culturing conditions. After incubation, CellTiter-Glo® 3D reagent (Promega Corporation, Madison, WI) was spiked in all wells. Plates were incubated in the dark at room temperature for 1 hour and luminescence was quantified using a BioTek Cytation 5 Cell Imaging Multi-Mode Reader (Agilent Technologies, Inc., Santa Clara, CA). Based on blank wells (no test article added), percent cytotoxicity values were calculated and plotted against test article concentration using GraphPad Prism 9 software (GraphPad Software, San Diego, CA).

[2] = system: HEC-1-A (uterine adenocarcinoma) spheroids; assay: as above; details: monoculture spheroids, 6-day treatment
Description: as §1, §2

[3] = system: IGROV-1 (ovarian adenocarcinoma) spheroids; assay: as above; details: monoculture spheroids, 6-day treatment
Description: as §1, §2

[4] = system: OVCAR-3 (ovarian adenocarcinoma) spheroids; assay: as above; details: monoculture spheroids, 6-day treatment
Description: as §1, §2

[5] = system: T-47D (breast carcinoma) spheroids; assay: as above; details: monoculture spheroids, 6-day treatment
Description: as §1, §2

Compound	IC50 (Calu-3 (lung cancer)) [nM]	EC50 [1] [nM]	EC50 [2] [nM]	EC50 [3] [nM]	EC50 [4] [nM]	EC50 [5] [nM]
CC[C@@]1(O)C(=O)OCc2c1cc1n(c2=O)Cc2c-1nc1cc(F)c(OC)cc1c2CNC(=O)NCc1ccc(N)cc1 [Compound 135, (S)-1-(4-aminobenzyl)-3-((4-ethyl-8-fluoro-4-hydroxy-9-methoxy-3,14-dioxo-3,4,12,14-tetrahydro-1H-pyrano[3′,4′: 6,7]indolizino[1,2-b]quinolin-11-yl)methyl)urea]	25.1					
v21995-MC-GGFG-DXd: "ADCs comprising the antibody palivizumab (v21995) were used as non-targeted controls"; drug-linker MC-GGFG-DXd		24.4	27.6	16.7	46	17.8
